Here are results for one compound from patent US8808706B2, “Arthrospira-based compositions and uses thereof” (Biovite Australia Pty. Ltd., priority 2004, dated 2014).

The test deals with Trichophyton mentagrophytes. Description: Inhibitory test, filter paper disc on newly inoculated plate. It counts as cell-based. The conditions noted are these: FIG. 20. Here is the method:
Sabouraud's liquid medium was inoculated with the chosen pathogen. The broths were then incubated for one week at 28° C. […] Monographed actives not already in a cream base were mixed with a respective cream base. […] Up to four different discs were placed on a plate. The plate was then incubated for 24-48 hours at the appropriate temperature depending on the pathogen. Photos were then taken at the completion of the 24-48 hours.

As to `Clc1ccc(COC(Cn2ccnc2)c2ccc(Cl)cc2Cl)c(Cl)c1` (stereo not shown) [miconazole], the regrowth into clearance entry is recorded as “became encroached by regrowth”.
